Laboratory results reported in article PMC8286840, “Identifying SARS-CoV-2 antiviral compounds by screening for small molecule inhibitors of Nsp3 papain-like protease” (Biochemical Journal, 2021).
Counter-ions that a name gives are not always drawn. Like-named read-outs stand apart in the source and are kept apart here. Where a SMILES comes first, the peptide text is derived from it.

What was measured:
[1] = target: T1, SARS-CoV-2 PLpro (nsp3 1564–1878) (Severe acute respiratory syndrome coronavirus 2, UniProt P0DTD1); assay: biochemical; set-up: FRET-quenched peptide (Pro3) cleavage by PLpro, 10 min pre-incubation, slope over 20 min, normalised to no-compound control; details: high concentration screen, read-out: % of control remaining
[2] = target: T1, SARS-CoV-2 PLpro (nsp3 1564–1878); assay: biochemical; set-up: FRET-quenched peptide (Pro3) cleavage by PLpro, 10 min pre-incubation, slope over 20 min, normalised to no-compound control; details: low concentration screen, read-out: % of control remaining

CCCCC/C=C\C/C=C\C/C=C\C/C=C\CCCC(=O)O [Arachidonic acid]
remaining activity at 3.75 µM ([1]; Well no.=4301): 101%
remaining activity at 3.75 µM ([1]; Well no.=4446): 97.5%
remaining activity at 1.25 µM ([2]; Well no.=4301): 104%
remaining activity at 1.25 µM ([2]; Well no.=4446): 95.8%

CCOC(=O)c1c(CSc2ccccc2)n(C)c2cc(Br)c(O)c(CN(C)C)c12 [Arbidol HCl]
remaining activity at 3.75 µM ([1]; Well no.=5098): 107%
remaining activity at 1.25 µM ([2]; Well no.=5098): 104%

OC[C@H]1O[C@@H](Oc2ccc(O)cc2)[C@H](O)[C@@H](O)[C@@H]1O [Arbutin]
remaining activity at 3.75 µM ([1]; Well no.=3478): 101%
remaining activity at 1.25 µM ([2]; Well no.=3478): 103%

NC(N)=NCCCCN=C(N)N [Arcaine sulfate]
remaining activity at 3.75 µM ([1]; Well no.=293): 96.8%
remaining activity at 1.25 µM ([2]; Well no.=293): 99.2%

COc1cc(C[C@H]2C(=O)OC[C@@H]2Cc2ccc(OC)c(OC)c2)ccc1O [Arctigenin - (3R,4R)-4-[(3,4-Dimethoxyphenyl)methyl]dihydro-3-[(4-hydroxy-3-methoxyphenyl)methyl]-2(3H)-furanone]
remaining activity at 3.75 µM ([1]; Well no.=2446): 105%
remaining activity at 1.25 µM ([2]; Well no.=2446): 105%

O=C1NC(=O)c2c1c1c3ccccc3[nH]c1c1[nH]c3ccccc3c21 [Arcyriaflavin A - 12,13-Dihydro-5H-indolo[2,3-a]pyrrolo[3,4-c]carbazole-5,7(6H)-dione]
remaining activity at 3.75 µM ([1]; Well no.=2532): 100%
remaining activity at 1.25 µM ([2]; Well no.=2532): 102%

O=C1NC(=O)c2c1c1c3ccccc3[nH]c1c1[nH]c3ccccc3c21 [Arcyriaflavin A, Synthetic]
remaining activity at 3.75 µM ([1]; Well no.=2333): 102%
remaining activity at 1.25 µM ([2]; Well no.=2333): 105%

C#CCOC(=O)C1=CCCN(C)C1 [Arecaidine propargyl ester hydrobromide]
remaining activity at 3.75 µM ([1]; Well no.=254): 98.4%
remaining activity at 1.25 µM ([2]; Well no.=254): 97.1%

NC(N)=NCCC[C@H](N)C(=O)NCC(=O)N[C@@H](CC(=O)O)C(=O)N[C@@H](CS)C(=O)O [Arg-Gly-Asp-Cys] (H-RGDC-OH)
remaining activity at 3.75 µM ([1]; Well no.=8126): 97.3%
remaining activity at 1.25 µM ([2]; Well no.=8126): 99.2%

NC(N)=NCCC[C@H](N)C(=O)NCC(=O)N[C@@H](CC(=O)O)C(=O)N[C@@H](CO)C(=O)O [Arg-Gly-Asp-Ser]
remaining activity at 3.75 µM ([1]; Well no.=7938): 95.3%
remaining activity at 1.25 µM ([2]; Well no.=7938): 95.5%

NC(N)=NCCC[C@H](N)C(=O)NCC(=O)N[C@@H](CCC(=O)O)C(=O)N[C@@H](CO)C(=O)O [Arg-Gly-Glu-Ser(TFA)] (H-RGES-OH)
remaining activity at 3.75 µM ([1]; Well no.=7924): 97.3%
remaining activity at 1.25 µM ([2]; Well no.=7924): 96.4%

CC1CNc2c(cccc2S(=O)(=O)N[C@@H](CCCNC(=N)N)C(=O)N2CC[C@@H](C)C[C@@H]2C(=O)O)C1 (some centres unmarked) [Argatroban (monohydrate)]
remaining activity at 3.75 µM ([1]; Well no.=8454): 101%
remaining activity at 1.25 µM ([2]; Well no.=8454): 103%

CC1CNc2c(cccc2S(=O)(=O)N[C@@H](CCCNC(=N)N)C(=O)N2CC[C@@H](C)C[C@@H]2C(=O)O)C1 (some centres unmarked) [Argatroban]
remaining activity at 3.75 µM ([1]; Well no.=2196): 97.9%
remaining activity at 1.25 µM ([2]; Well no.=2196): 97.1%

N[C@](CCCCB(O)O)(CCN1CCCCC1)C(=O)O [Arginase inhibitor 1]
remaining activity at 3.75 µM ([1]; Well no.=8697): 105%
remaining activity at 1.25 µM ([2]; Well no.=8697): 106%

O=C1CCc2ccc(OCCCCN3CCN(c4cccc(Cl)c4Cl)CC3)cc2N1 [Aripiprazole]
remaining activity at 3.75 µM ([1]; Well no.=1844): 95.9%
remaining activity at 3.75 µM ([1]; Well no.=8237): 95.5%
remaining activity at 1.25 µM ([2]; Well no.=1844): 93.9%
remaining activity at 1.25 µM ([2]; Well no.=8237): 102%

COc1cccc2c1cc([N+](=O)[O-])c1c(C(=O)O)cc3c(c12)OCO3 [Aristolochic acid A]
remaining activity at 3.75 µM ([1]; Well no.=3081): 103%
remaining activity at 1.25 µM ([2]; Well no.=3081): 106%

CO[C@H]1O[C@@H]2O[C@@]3(C)CC[C@H]4[C@H](C)CC[C@@H]([C@H]1C)[C@@]24OO3 [Artemether (SM-224)]
remaining activity at 3.75 µM ([1]; Well no.=5188): 97.4%
remaining activity at 1.25 µM ([2]; Well no.=5188): 94.9%

C[C@H]1[C@H](OC(=O)CCC(=O)O)O[C@@H]2O[C@@]3(C)CC[C@H]4[C@H](C)CC[C@@H]1[C@@]24OO3 [Artesunate]
remaining activity at 3.75 µM ([1]; Well no.=2200): 98.2%
remaining activity at 3.75 µM ([1]; Well no.=3083): 102%
remaining activity at 1.25 µM ([2]; Well no.=2200): 100%
remaining activity at 1.25 µM ([2]; Well no.=3083): 96%

CCCNC(C)C(=O)Nc1c(C)csc1C(=O)OC (centres unmarked) [Articaine HCl]
remaining activity at 3.75 µM ([1]; Well no.=5367): 94.3%
remaining activity at 1.25 µM ([2]; Well no.=5367): 95.8%

CC[C@@H]1/C=C(\C)C[C@H](C)C[C@H](OC)[C@H]2O[C@@](O)(C(=O)C(=O)N3CCCC[C@H]3C(=O)O[C@H](/C(C)=C/[C@@H]3CC[C@@H](O)[C@H](OC)C3)[C@H](C)[C@@H](O)CC1=O)[C@H](C)C[C@@H]2OC [Ascomycin]
remaining activity at 3.75 µM ([1]; Well no.=6638): 98.9%
remaining activity at 3.75 µM ([1]; Well no.=7410): 96.8%
remaining activity at 1.25 µM ([2]; Well no.=6638): 102%
remaining activity at 1.25 µM ([2]; Well no.=7410): 98%

O=C1O[C@H]([C@@H](O)CO)C(O)=C1O [Ascorbic acid]
remaining activity at 3.75 µM ([1]; Well no.=4039): 99.5%
remaining activity at 1.25 µM ([2]; Well no.=4039): 99.8%

CCCCCCCCCCCCCCCC(=O)OC[C@H](O)[C@H]1OC(=O)C(O)=C1O [Ascorbyl palmitate]
remaining activity at 3.75 µM ([1]; Well no.=4041): 105%
remaining activity at 1.25 µM ([2]; Well no.=4041): 102%

C[C@H]1[C@H](C)CC[C@]2(C(=O)O)CC[C@]3(C)C(=CC[C@@H]4[C@@]5(C)C[C@@H](O)[C@H](O)[C@@](C)(CO)[C@@H]5CC[C@]43C)[C@H]12 [Asiatic acid]
remaining activity at 3.75 µM ([1]; Well no.=3509): 103%
remaining activity at 1.25 µM ([2]; Well no.=3509): 100%

COC(=O)[C@H](Cc1ccccc1)NC(=O)[C@@H](N)CC(=O)O [Aspartame] (H-Asp-Phe-OMe)
remaining activity at 3.75 µM ([1]; Well no.=5048): 101%
remaining activity at 3.75 µM ([1]; Well no.=7302): 102%
remaining activity at 1.25 µM ([2]; Well no.=5048): 100%
remaining activity at 1.25 µM ([2]; Well no.=7302): 102%

CC1=C(/C=C/C(C)=C/C=C/C(C)=C/C=C/C=C(C)/C=C/C=C(C)/C=C/C2=C(C)C(=O)[C@@H](O)CC2(C)C)C(C)(C)C[C@H](O)C1=O [Astaxanthin]
remaining activity at 3.75 µM ([1]; Well no.=296): 92.4%
remaining activity at 1.25 µM ([2]; Well no.=296): 93.3%

COc1ccc(CCN2CCC(Nc3nc4ccccc4n3Cc3ccc(F)cc3)CC2)cc1 [Astemizole]
remaining activity at 3.75 µM ([1]; Well no.=2054): 102%
remaining activity at 1.25 µM ([2]; Well no.=2054): 102%

C[C@@H]1O[C@@H](O[C@H]2C(=O)c3c(O)cc(O)cc3O[C@@H]2c2ccc(O)c(O)c2)[C@H](O)[C@H](O)[C@H]1O [Astilbin]
remaining activity at 3.75 µM ([1]; Well no.=6924): 106%
remaining activity at 1.25 µM ([2]; Well no.=6924): 114%

CC(C)(O)[C@H]1CC[C@@](C)([C@H]2[C@@H](O)C[C@@]3(C)[C@@H]4C[C@H](O[C@@H]5O[C@H](CO)[C@@H](O)[C@H](O)[C@H]5O)[C@H]5C(C)(C)[C@@H](O[C@@H]6OC[C@@H](O)[C@H](O)[C@H]6O)CC[C@@]56C[C@@]46CC[C@]23C)O1 [Astragaloside A]
remaining activity at 3.75 µM ([1]; Well no.=5238): 102%
remaining activity at 1.25 µM ([2]; Well no.=5238): 98.6%

CN(C)C(N)=NCCC[C@H](N)C(=O)O [Asymmetric dimethylarginine]
remaining activity at 3.75 µM ([1]; Well no.=7119): 102%
remaining activity at 1.25 µM ([2]; Well no.=7119): 103%
